Values after ≈ are worked out from the molar mass of the structure shown.
Tests used:
Format in all cases: physicochemical
[1] = Hygroscopicity experiment (DVS)
Description: The Dynamic Vapor Sorption (DVS) curve was acquired on the DVS Intrinsic of Surface Measurement Systems.
The DVS results for crystal forms A, D, E-3 and F are shown in FIG. 1E, FIG. 4F, FIG. 7E and FIG. 8E, respectively.

[2] = Stability experiment (storage of crystal forms, HPLC)
Description: High performance liquid chromatography spectrum was acquired on an Agilent 1260 HPLC, the specific instrument and test parameters are shown in the table 18 below.
Another set of samples were sealed at 5° C. and kept as a control at the same time. […]

Solubility experiment = conditions: for Solubility (mg/mL) 0.1M HCl / Solubility (mg/mL) H2O: room temperature; for Solubility (mg/mL) pH6.8: buffer pH 6.8, room temperature; for Solubility (mg/mL) H2O: water
Description: The solubility of crystal forms A, D, E-1, E-3, F and free base sample in buffer of 0.1M HCl, pH 4.5, pH 6.8 and water was tested at room temperature. In the test, the standard curves of free base sample and five crystal forms were plotted. Subsequently, 6 mg of API and five crystal form samples were weighed, respectively, and 2 ml of the solvent was added, the mixture was shaken at room temperature for 4 h, then ultrasonicated for 30 min, centrifuged, and the supernatant was taken out, filtered through a 0.45 μm filter and injected, and the solubility was measured, the results are shown in Table 28 (concentration is in mg/ml).

[3] = Crystal form stability on shaking in solvent or heating (XRPD); conditions: for crystal form after shaking of mixed forms: crystal forms III and IV mixed in ACE and MeOH, shaken at 50° C. for 1 day
Description: The reaction solution in the step 4 of Example 1 was poured into water, extracted with ethyl acetate, dried and concentrated, ethanol was added to dissolve and the solution was evaporated, 1N hydrochloric acid and ethyl acetate were added and stirred for 1-2 h, filtered, a solid product which was the crystal form III of free base was obtained, the X-ray powder diffraction pattern is shown in FIG. 11A (the 2θ angle has been marked), the DSC/TGA/DVS patterns are shown in FIGS. 11B, 11C and 11D. According to the DSC pattern, there is an inflection point around 100° C., and the sample has a melting absorption peak at 181.9° C. […] The sample was shaken in ACE and MeOH at 50° C. for 1 day, and the crystal form was unchanged.
The reaction solution in the step 4 of Example 1 was poured into water, extracted with ethyl acetate, dried and concentrated to retain a small amount of ethyl acetate, 1N hydrochloric acid was added and stirred for 1 h, filtered, the filter cake was washed with ethanol and then filtered to obtain a solid product which was the crystal form IV of free base was obtained. The X-ray powder diffraction pattern is shown in FIG. 12A (the […] has been marked), the DSC/TGA/DVS patterns are shown in FIGS. 12B, 12C and 12D. […] The sample was shaken in ACE at 50° C. for 1 day, and the crystal form was unchanged. […]

[4] = 5° C. 0 d, — = below detection limit
[5] = 40° C. 75% RH 14 d, — = below detection limit
[6] = 60° C. 7 d, — = below detection limit
[7] = 60° C. 21 d, — = below detection limit
[8] = buffer pH 4.5, room temperature

Row | Structure (SMILES) | hygroscopicity (DVS curve) [1] | RRT (%) 0.86 ([2]; 5° C. 0 d) [%] | RRT (%) 1.00 ([2]; 5° C. 0 d) [%] | RRT (%) 1.05 ([2]; 5° C. 0 d) [%] | Total impurities (%) ([2]; 5° C. 0 d) | Content (%) ([2]; 40° C. 75% RH 14 d) | RRT (%) 1.00 ([2]; 40° C. 75% RH 14 d) [%] | RRT (%) 1.05 ([2]; 40° C. 75% RH 14 d) [%] | Total impurities (%) ([2]; 40° C. 75% RH 14 d) | Content (%) ([2]; 60° C. 7 d) | RRT (%) 0.86 ([2]; 60° C. 7 d) [%] | RRT (%) 1.00 ([2]; 60° C. 7 d) [%] | RRT (%) 1.05 ([2]; 60° C. 7 d) [%] | Total impurities (%) ([2]; 60° C. 7 d) | Content (%) ([2]; 60° C. 21 d) | RRT (%) 1.00 ([2]; 60° C. 21 d) [%] | RRT (%) 1.05 ([2]; 60° C. 21 d) [%] | Solubility (mg/mL) 0.1M HCl (Solubility experiment) [mg/mL] | Solubility (mg/mL) pH6.8 (Solubility experiment) [mg/mL] | Solubility (mg/mL) H2O (Solubility experiment) [mg/mL] | other results
1 | Cc1cc(N2CCN(Cc3cc(F)c(C(=O)NS(=O)(=O)C4CC4)cc3Cl)CC2)ccc1Cl [crystal form A, 5-chloro-4-((4-(4-chloro-3-methylphenyl)piperazin-1-yl)methyl)-N-(cyclopropylsulfonyl)-2-fluorobenzamide] | slightly hygroscopic | 0.05 | 99.84 | 0.04 | 0.16 | 99.8 | 99.83 | 0.02 | 0.17 | 98.6 | 0.05 | 99.84 | 0.02 | 0.16 | 97.6 | 99.82 | 0.03 | 0.011 (≈ 22 µM) | 0.01 | 0.005 (≈ 9.99 µM) | moisture absorbed (DVS) ([1]; at 95% RH): 0.4%; RRT (%) 0.79 [2, 4]: 0.07%; RRT (%) 0.79 [2, 5]: 0.07%; RRT (%) 0.88 [2, 5]: 0.04%; RRT (%) 0.79 [2, 6]: 0.08%; Total impurities (%) ([2]; 60° C. 21 d): 0.18%; RRT (%) 0.79 [2, 7]: 0.07%; RRT (%) 0.86 [2, 7]: 0.02%; RRT (%) 0.88 [2, 7]: 0.05%; Solubility (mg/mL) pH4.5 (Solubility experiment; [8]): 0.001 mg/mL
2 | Cc1cc(N2CCN(Cc3cc(F)c(C(=O)NS(=O)(=O)C4CC4)cc3Cl)CC2)ccc1Cl [crystal form D, 5-chloro-4-((4-(4-chloro-3-methylphenyl)piperazin-1-yl)methyl)-N-(cyclopropylsulfonyl)-2-fluorobenzamide] | almost no hygroscopicity | 0.03 | 99.90 | 0.03 | 0.11 | 100.2 | 99.90 | 0.03 | 0.09 | 98.9 | 0.03 | 99.90 | 0.03 | 0.11 | 99.1 | 99.91 | 0.03 | 0.018 (≈ 36 µM) | 0.016 | 0.005 (≈ 9.99 µM) | moisture absorbed (DVS) ([1]; at 95% RH): 0.07%; RRT (%) 0.79 [2, 4]: 0.04%; RRT (%) 0.79 [2, 5]: 0.04%; RRT (%) 0.88 [2, 5]: 0.02%; RRT (%) 0.79 [2, 6]: 0.04%; Total impurities (%) ([2]; 60° C. 21 d): 0.09%; RRT (%) 0.79 [2, 7]: 0.04%; RRT (%) 0.88 [2, 7]: 0.02%; Solubility (mg/mL) pH4.5 (Solubility experiment; [8]): 0.002 mg/mL
3 | Cc1cc(N2CCN(Cc3cc(F)c(C(=O)NS(=O)(=O)C4CC4)cc3Cl)CC2)ccc1Cl [crystal form E-1, 5-chloro-4-((4-(4-chloro-3-methylphenyl)piperazin-1-yl)methyl)-N-(cyclopropylsulfonyl)-2-fluorobenzamide] | – | – | – | – | – | – | – | – | – | – | – | – | – | – | – | – | – | 0.019 (≈ 38 µM) | 0.035 | >2.669 | Solubility (mg/mL) pH4.5 (Solubility experiment; [8]): 0.002 mg/mL
4 | Cc1cc(N2CCN(Cc3cc(F)c(C(=O)NS(=O)(=O)C4CC4)cc3Cl)CC2)ccc1Cl [crystal form E-3, 5-chloro-4-((4-(4-chloro-3-methylphenyl)piperazin-1-yl)methyl)-N-(cyclopropylsulfonyl)-2-fluorobenzamide] | has hygroscopicity | 0.08 | 99.79 | 0.06 | 0.26 | 106.4 | 99.71 | 0.04 | 0.29 | 99.5 | 0.08 | 99.78 | 0.06 | 0.22 | 105.1 | 99.71 | 0.04 | 0.016 (≈ 32 µM) | 0.096 | >2.780 | moisture absorbed (DVS) ([1]; when RH is 85%): 2%; RRT (%) 0.54 [2, 4]: 0.13%; RRT (%) 0.54 [2, 5]: 0.09%; RRT (%) 0.86 [2, 5]: 0.07%; RRT (%) 0.54 [2, 6]: 0.09%; Total impurities (%) ([2]; 60° C. 21 d): 0.30%; RRT (%) 0.54 [2, 7]: 0.08%; RRT (%) 0.86 [2, 7]: 0.07%; solubility at 4 h (Solubility experiment; buffer pH 4.5, pH 4.5, aqueous buffer, thermodynamic from solid, buffer pH 4.5, room temperature, read-out: Solubility (mg/mL) pH4.5): 0.002 mg/mL (≈ 4 µM)
5 | Cc1cc(N2CCN(Cc3cc(F)c(C(=O)NS(=O)(=O)C4CC4)cc3Cl)CC2)ccc1Cl [crystal form F, 5-chloro-4-((4-(4-chloro-3-methylphenyl)piperazin-1-yl)methyl)-N-(cyclopropylsulfonyl)-2-fluorobenzamide] | has hygroscopicity | 0.05 | 99.86 | 0.03 | 0.14 | 98.4 | 99.90 | 0.04 | 0.10 | 99.7 | 0.03 | 99.87 | 0.04 | 0.13 | 101.0 | 99.80 | 0.03 | 0.017 (≈ 34 µM) | 0.050 | >3.154 | moisture absorbed (DVS) ([1]; when RH is 85%): 4%; RRT (%) 0.79 [2, 4]: 0.06%; RRT (%) 0.79 [2, 5]: 0.04%; RRT (%) 0.79 [2, 6]: 0.06%; Total impurities (%) ([2]; 60° C. 21 d): 0.20%; RRT (%) 0.79 [2, 7]: 0.05%; RRT (%) 0.86 [2, 7]: 0.03%; RRT (%) 0.88 [2, 7]: 0.02%; Solubility (mg/mL) pH4.5 (Solubility experiment; [8]): 0.002 mg/mL
6 | Cc1cc(N2CCN(Cc3cc(F)c(C(=O)NS(=O)(=O)C4CC4)cc3Cl)CC2)ccc1Cl [crystal form I, 5-chloro-4-((4-(4-chloro-3-methylphenyl)piperazin-1-yl)methyl)-N-(cyclopropylsulfonyl)-2-fluorobenzamide] | slightly hygroscopic | – | – | – | – | – | – | – | – | – | – | – | – | – | – | – | – | – | – | – | stability of the crystal form (assessment in words) [3]: good stability
7 | Cc1cc(N2CCN(Cc3cc(F)c(C(=O)NS(=O)(=O)C4CC4)cc3Cl)CC2)ccc1Cl [crystal form II, 5-chloro-4-((4-(4-chloro-3-methylphenyl)piperazin-1-yl)methyl)-N-(cyclopropylsulfonyl)-2-fluorobenzamide] | hygroscopic | – | – | – | – | – | – | – | – | – | – | – | – | – | – | – | – | – | – | – | –
8 | Cc1cc(N2CCN(Cc3cc(F)c(C(=O)NS(=O)(=O)C4CC4)cc3Cl)CC2)ccc1Cl [crystal form III, 5-chloro-4-((4-(4-chloro-3-methylphenyl)piperazin-1-yl)methyl)-N-(cyclopropylsulfonyl)-2-fluorobenzamide] | slightly hygroscopic | – | – | – | – | – | – | – | – | – | – | – | – | – | – | – | – | – | – | – | stability of the crystal form (assessment in words) [3]: metastable crystal form; crystal form after shaking of mixed forms [3]: converted into crystal form I; crystal form after shaking ([3]; shaken in ACE and MeOH at 50° C. for 1 day): unchanged
9 | Cc1cc(N2CCN(Cc3cc(F)c(C(=O)NS(=O)(=O)C4CC4)cc3Cl)CC2)ccc1Cl [crystal form IV, 5-chloro-4-((4-(4-chloro-3-methylphenyl)piperazin-1-yl)methyl)-N-(cyclopropylsulfonyl)-2-fluorobenzamide] | slightly hygroscopic | – | – | – | – | – | – | – | – | – | – | – | – | – | – | – | – | – | – | – | stability of the crystal form (assessment in words) [3]: metastable crystal form; crystal form after shaking of mixed forms [3]: converted into crystal form I; crystal form after shaking ([3]; shaken in ACE at 50° C. for 1 day): unchanged
10 | Cc1cc(N2CCN(Cc3cc(F)c(C(=O)NS(=O)(=O)C4CC4)cc3Cl)CC2)ccc1Cl [crystal form V, 5-chloro-4-((4-(4-chloro-3-methylphenyl)piperazin-1-yl)methyl)-N-(cyclopropylsulfonyl)-2-fluorobenzamide] | slightly hygroscopic | – | – | – | – | – | – | – | – | – | – | – | – | – | – | – | – | – | – | – | crystal form after heating ([3]; heated to 150° C.): converted into crystal form I
